# Read-outs that look alike come from different tables or passages of the source.
# Assays:
# NFAT = assay: Cellular NFAT-reporter-gene assay (GloResponse NFAT-RE-luc2P HEK293); format: cell-based; conditions: Homo sapiens, read-out: NFAT-reporter-gene assay IC50
# Excerpt: An antigen specific stimulation of the T-cell receptor causes the activation of transcription factors such as e.g. NFAT (nuclear factor of activated T cells). NFAT-activation is essential for the expression of interleukine-2 and therefore, for the proliferation of T-cells as part of the immune response. A stable NFAT-reporter-gene cell line enables the analysis of modulators of the NFAT-pathways and thus, the evaluation of the immunosuppressive effects of compounds.
# The stably transfected reporter-gene cell line GloResponse NFAT-RE-luc2P HEK293 (promega Corp. USA) was cultivated in DMEM (10% FCS; 2 mM Glutamin; 200 μg/ml Hygromycin) and seeded on 96-well plates (200.000 cells/well). The compounds to be tested were either added to the cells in a 2-point-determination (5 μM and 10 μM) or an ICH-determination (concentration series 4.1 nM-1 μM). […] Immediately thereafter the cells were stimulated with 5 nM PMA and 2 μM ionomycin and incubated over 16 h (37° C.; cell incubator). This double stimulation simulates a T-cell receptor stimulation and causes a NFAT activation with subsequently expression of the luciferase-reporter-gene. The amount of luciferase was quantitatively determined after 16 h by measurement of the bioluminescence by Bright-Glo Luciferase-Assay-System (Promega Corp., USA). The averaged luciferase values of the vehicle treated (1% DMSO) and with PMA/ionomycin stimulated cells were used as positive control and reference value.
# calcineurin = calcineurin (Homo sapiens, UniProt P62937+P63098+Q08209); assay: Inhibition of the phosphatase activity of calcineurin (scintillation-proximity-assay, in presence of Cyp18);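 note: calcineurin dephosphorylation of a ³³P-labelled RII phosphopeptide, captured on streptavidin-coated wells and read by scintillation counting, with uninhibited enzyme activity taken as 100%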
# Description: The measurement was carried out by incubation of 10 μMol of the biotinylated phosphopeptide [sequence]pSer-Val-Ala-Ala-Glu (MW=2192.0) (RH-peptide) marked with ^33P in a sample buffer (40 mM Tris-HCl, pH 7.5, 100 mM NaCl, 6 mM MgCl2, 0.5 mM dithiothreitol, 1 mM. CaCl2, 0.1 mg/ml bovine serum albumin) in presence of 50 nM calmodulin and 1.32 nM calcineurin at 30° C. for 20 min in a 96 well micro titer plate (Costar, Bodenheim, Germany). The total volume of the assay/well was 100 μl. After this reaction time a 90 μl aliquot of the reaction mixture was transferred into a scintillation cavity coated with streptavidin and incubated for 20 min at 22° C. After a washing step the RII phosphopeptide-associated ^33P radioactivity was measured in a MicroBeta Top Counter (Wallac) and the enzyme activity was indicated as average value of three measurements±S.D. The uninhibited dephosphorylation activity has been set on 100%.
# [1] = biological target: recombinant human wild type Cyp18 (Cyp18 wt) (Homo sapiens, UniProt P62937); assay: biochemical
# Chain of recombinant human wild type Cyp18 (Cyp18 wt) (P62937 whole entry): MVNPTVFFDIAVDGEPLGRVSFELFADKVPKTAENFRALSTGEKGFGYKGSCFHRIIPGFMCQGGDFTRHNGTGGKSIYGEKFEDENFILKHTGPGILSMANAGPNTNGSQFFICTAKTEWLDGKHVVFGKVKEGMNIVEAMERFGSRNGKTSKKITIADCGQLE
smiles,measurement,setting,value
CC[C@@H]1NC(=O)[C@H]([C@H](O)[C@H](C)Cc2nc3c(F)c(F)cc(S(=O)(=O)O)c3[nH]2)N(C)C(=O)[C@H](C(C)C)N(C)C(=O)[C@H](CC(C)C)N(C)C(=O)[C@H](CC(C)C)N(C)C(=O)[C@@H](C)NC(=O)[C@H](C)NC(=O)[C@H](CC(C)C)N(C)C(=O)[C@H](C(C)C)NC(=O)[C@H](CC(C)C)N(C)C(=O)CN(C)C1=O [Compound 20],IC50,"NFAT; HEK293, 16 h",> 10 µM
same,IC50,calcineurin,> 10 µM
same,IC50,[1],0.0067 µM
CC[C@@H]1NC(=O)[C@H]([C@H](O)[C@H](C)Cc2nc3cc(C(=O)NN)ccc3[nH]2)N(C)C(=O)[C@H](C(C)C)N(C)C(=O)[C@H](CC(C)C)N(C)C(=O)[C@H](CC(C)C)N(C)C(=O)[C@@H](C)NC(=O)[C@H](C)NC(=O)[C@H](CC(C)C)N(C)C(=O)[C@H](C(C)C)NC(=O)[C@H](CC(C)C)N(C)C(=O)CN(C)C1=O [Compound 19],IC50,"NFAT; HEK293, 16 h",> 10 µM
same,IC50,calcineurin,7 µM
same,IC50,[1],0.0054 µM
CC[C@@H]1NC(=O)[C@H]([C@H](O)[C@H](C)Cc2nc3cc(NS(=O)(=O)C(F)(F)F)ccc3[nH]2)N(C)C(=O)[C@H](C(C)C)N(C)C(=O)[C@H](CC(C)C)N(C)C(=O)[C@H](CC(C)C)N(C)C(=O)[C@@H](C)NC(=O)[C@H](C)NC(=O)[C@H](CC(C)C)N(C)C(=O)[C@H](C(C)C)NC(=O)[C@H](CC(C)C)N(C)C(=O)CN(C)C1=O [Compound 47],IC50,"NFAT; HEK293, 16 h",> 10 µM
same,IC50,calcineurin,> 10 µM
same,IC50,[1],0.0132 µM
CC[C@@H]1NC(=O)[C@H]([C@H](O)[C@H](C)CC2=NC(C(=O)O)CO2)N(C)C(=O)[C@H](C(C)C)N(C)C(=O)[C@H](CC(C)C)N(C)C(=O)[C@H](CC(C)C)N(C)C(=O)[C@@H](C)NC(=O)[C@H](C)NC(=O)[C@H](CC(C)C)N(C)C(=O)[C@H](C(C)C)NC(=O)[C@H](CC(C)C)N(C)C(=O)CN(C)C1=O (stereo partly shown) [Compound 43],IC50,"NFAT; HEK293, 16 h",5.3 µM
same,IC50,[1],0.0453 µM
CC[C@@H]1NC(=O)[C@H]([C@H](O)[C@H](C)Cc2nc3ncnc(O)c3[nH]2)N(C)C(=O)[C@H](C(C)C)N(C)C(=O)[C@H](CC(C)C)N(C)C(=O)[C@H](CC(C)C)N(C)C(=O)[C@@H](C)NC(=O)[C@H](C)NC(=O)[C@H](CC(C)C)N(C)C(=O)[C@H](C(C)C)NC(=O)[C@H](CC(C)C)N(C)C(=O)CN(C)C1=O [Compound 18],IC50,"NFAT; HEK293, 16 h",> 10 µM
same,IC50,[1],0.0014 µM
CCOC(=O)c1ccc2[nH]c(C[C@@H](C)[C@@H](O)[C@H]3C(=O)N[C@@H](CC)C(=O)N(C)CC(=O)N(C)[C@@H](CC(C)C)C(=O)N[C@@H](C(C)C)C(=O)N(C)[C@@H](CC(C)C)C(=O)N[C@@H](C)C(=O)N[C@H](C)C(=O)N(C)[C@@H](CC(C)C)C(=O)N(C)[C@@H](CC(C)C)C(=O)N(C)[C@@H](C(C)C)C(=O)N3C)nc2c1 [Compound 9],IC50,"NFAT; HEK293, 16 h",> 10 µM
same,IC50,calcineurin,7 µM
same,IC50,[1],0.0139 µM
CC[C@@H]1NC(=O)[C@H]([C@H](O)[C@H](C)Cc2nc3cc(C(=O)OC)c(C(=O)OC)cc3[nH]2)N(C)C(=O)[C@H](C(C)C)N(C)C(=O)[C@H](CC(C)C)N(C)C(=O)[C@H](CC(C)C)N(C)C(=O)[C@@H](C)NC(=O)[C@H](C)NC(=O)[C@H](CC(C)C)N(C)C(=O)[C@H](C(C)C)NC(=O)[C@H](CC(C)C)N(C)C(=O)CN(C)C1=O [Compound 32],IC50,"NFAT; HEK293, 16 h",> 10 µM
same,IC50,calcineurin,> 10 µM
same,IC50,[1],0.0249 µM
CC[C@@H]1NC(=O)[C@H]([C@H](O)[C@H](C)Cc2nc3ccc(C(=O)OC)c(C(=O)OC)c3[nH]2)N(C)C(=O)[C@H](C(C)C)N(C)C(=O)[C@H](CC(C)C)N(C)C(=O)[C@H](CC(C)C)N(C)C(=O)[C@@H](C)NC(=O)[C@H](C)NC(=O)[C@H](CC(C)C)N(C)C(=O)[C@H](C(C)C)NC(=O)[C@H](CC(C)C)N(C)C(=O)CN(C)C1=O [Compound 30],IC50,"NFAT; HEK293, 16 h",> 10 µM
same,IC50,[1],0.0291 µM
CCCCOC(=O)c1ccc2[nH]c(C[C@@H](C)[C@@H](O)[C@H]3C(=O)N[C@@H](CC)C(=O)N(C)CC(=O)N(C)[C@@H](CC(C)C)C(=O)N[C@@H](C(C)C)C(=O)N(C)[C@@H](CC(C)C)C(=O)N[C@@H](C)C(=O)N[C@H](C)C(=O)N(C)[C@@H](CC(C)C)C(=O)N(C)[C@@H](CC(C)C)C(=O)N(C)[C@@H](C(C)C)C(=O)N3C)nc2c1 [Compound 11],IC50,"NFAT; HEK293, 16 h",10 µM
CC[C@@H]1NC(=O)[C@H]([C@H](O)[C@H](C)Cc2nc3ccc4c(S(=O)(=O)O)cccc4c3[nH]2)N(C)C(=O)[C@H](C(C)C)N(C)C(=O)[C@H](CC(C)C)N(C)C(=O)[C@H](CC(C)C)N(C)C(=O)[C@@H](C)NC(=O)[C@H](C)NC(=O)[C@H](CC(C)C)N(C)C(=O)[C@H](C(C)C)NC(=O)[C@H](CC(C)C)N(C)C(=O)CN(C)C1=O [Compound 45],IC50,"NFAT; HEK293, 16 h",> 10 µM
CCC(CC)COC(=O)c1ccc2[nH]c(C[C@@H](C)[C@@H](O)[C@H]3C(=O)N[C@@H](CC)C(=O)N(C)CC(=O)N(C)[C@@H](CC(C)C)C(=O)N[C@@H](C(C)C)C(=O)N(C)[C@@H](CC(C)C)C(=O)N[C@@H](C)C(=O)N[C@H](C)C(=O)N(C)[C@@H](CC(C)C)C(=O)N(C)[C@@H](CC(C)C)C(=O)N(C)[C@@H](C(C)C)C(=O)N3C)nc2c1 [Compound 10],IC50,"NFAT; HEK293, 16 h",> 10 µM
same,IC50,calcineurin,6.9 µM
same,IC50,[1],0.0115 µM
CC[C@@H]1NC(=O)[C@H]([C@H](O)[C@H](C)Cc2nc3cc(C(=O)OCCN(C)C)ccc3[nH]2)N(C)C(=O)[C@H](C(C)C)N(C)C(=O)[C@H](CC(C)C)N(C)C(=O)[C@H](CC(C)C)N(C)C(=O)[C@@H](C)NC(=O)[C@H](C)NC(=O)[C@H](CC(C)C)N(C)C(=O)[C@H](C(C)C)NC(=O)[C@H](CC(C)C)N(C)C(=O)CN(C)C1=O [Compound 26],IC50,"NFAT; HEK293, 16 h",> 10 µM
same,IC50,calcineurin,6.2 µM
same,IC50,[1],0.0108 µM
CC[C@@H]1NC(=O)[C@H]([C@H](O)[C@H](C)Cc2nc3cc(C(=O)NC(CCC(=O)O)C(=O)NC(CCC(=O)O)C(=O)O)ccc3[nH]2)N(C)C(=O)[C@H](C(C)C)N(C)C(=O)[C@H](CC(C)C)N(C)C(=O)[C@H](CC(C)C)N(C)C(=O)[C@@H](C)NC(=O)[C@H](C)NC(=O)[C@H](CC(C)C)N(C)C(=O)[C@H](C(C)C)NC(=O)[C@H](CC(C)C)N(C)C(=O)CN(C)C1=O (stereo partly shown) [Compound 13],IC50,"NFAT; HEK293, 16 h",> 10 µM
same,IC50,calcineurin,> 10 µM
same,IC50,[1],0.0111 µM
CC[C@@H]1NC(=O)[C@H]([C@H](O)[C@H](C)Cc2nc3cc(C(=O)OCCN4CCOCC4)ccc3[nH]2)N(C)C(=O)[C@H](C(C)C)N(C)C(=O)[C@H](CC(C)C)N(C)C(=O)[C@H](CC(C)C)N(C)C(=O)[C@@H](C)NC(=O)[C@H](C)NC(=O)[C@H](CC(C)C)N(C)C(=O)[C@H](C(C)C)NC(=O)[C@H](CC(C)C)N(C)C(=O)CN(C)C1=O [Compound 27],IC50,"NFAT; HEK293, 16 h",7.4 µM
same,IC50,calcineurin,6.4 µM
same,IC50,[1],0.0059 µM
CC[C@@H]1NC(=O)[C@H]([C@H](O)[C@H](C)Cc2nc3cc(F)cc(C(=O)O)c3[nH]2)N(C)C(=O)[C@H](C(C)C)N(C)C(=O)[C@H](CC(C)C)N(C)C(=O)[C@H](CC(C)C)N(C)C(=O)[C@@H](C)NC(=O)[C@H](C)NC(=O)[C@H](CC(C)C)N(C)C(=O)[C@H](C(C)C)NC(=O)[C@H](CC(C)C)N(C)C(=O)CN(C)C1=O [Compound 21],IC50,"NFAT; HEK293, 16 h",5.3 µM
same,IC50,calcineurin,> 10 µM
same,IC50,[1],0.0222 µM
CC[C@@H]1NC(=O)[C@H]([C@H](O)[C@H](C)CC2=NCCN2)N(C)C(=O)[C@H](C(C)C)N(C)C(=O)[C@H](CC(C)C)N(C)C(=O)[C@H](CC(C)C)N(C)C(=O)[C@@H](C)NC(=O)[C@H](C)NC(=O)[C@H](CC(C)C)N(C)C(=O)[C@H](C(C)C)NC(=O)[C@H](CC(C)C)N(C)C(=O)CN(C)C1=O [Compound 42],IC50,"NFAT; HEK293 reporter cells stimulated with 5 nM PMA and 2 μM ionomycin, 16 h",10 µM
CC[C@@H]1NC(=O)[C@H]([C@H](O)[C@H](C)Cc2nc3cccc(C(=O)OC)c3[nH]2)N(C)C(=O)[C@H](C(C)C)N(C)C(=O)[C@H](CC(C)C)N(C)C(=O)[C@H](CC(C)C)N(C)C(=O)[C@@H](C)NC(=O)[C@H](C)NC(=O)[C@H](CC(C)C)N(C)C(=O)[C@H](C(C)C)NC(=O)[C@H](CC(C)C)N(C)C(=O)CN(C)C1=O [Compound 29],IC50,"NFAT; HEK293, 16 h",10 µM
same,IC50,calcineurin,> 10 µM
same,IC50,[1],0.0295 µM
CC[C@@H]1NC(=O)[C@H]([C@H](O)[C@H](C)Cc2nc3cc(N)c(N)cc3[nH]2)N(C)C(=O)[C@H](C(C)C)N(C)C(=O)[C@H](CC(C)C)N(C)C(=O)[C@H](CC(C)C)N(C)C(=O)[C@@H](C)NC(=O)[C@H](C)NC(=O)[C@H](CC(C)C)N(C)C(=O)[C@H](C(C)C)NC(=O)[C@H](CC(C)C)N(C)C(=O)CN(C)C1=O [Compound 40],IC50,"NFAT; HEK293, 16 h",> 10 µM
same,IC50,calcineurin,8 µM
same,IC50,[1],0.0055 µM
CC[C@@H]1NC(=O)[C@H]([C@H](O)[C@H](C)Cc2nc3cc(/C=C/C(=O)O)ccc3[nH]2)N(C)C(=O)[C@H](C(C)C)N(C)C(=O)[C@H](CC(C)C)N(C)C(=O)[C@H](CC(C)C)N(C)C(=O)[C@@H](C)NC(=O)[C@H](C)NC(=O)[C@H](CC(C)C)N(C)C(=O)[C@H](C(C)C)NC(=O)[C@H](CC(C)C)N(C)C(=O)CN(C)C1=O [Compound 15],IC50,"NFAT; HEK293, 16 h",> 10 µM
same,IC50,calcineurin,> 10 µM
same,IC50,[1],0.0048 µM
CC[C@@H]1NC(=O)[C@H]([C@H](O)[C@H](C)Cc2nc3cc(C(=O)OC(C)C)ccc3[nH]2)N(C)C(=O)[C@H](C(C)C)N(C)C(=O)[C@H](CC(C)C)N(C)C(=O)[C@H](CC(C)C)N(C)C(=O)[C@@H](C)NC(=O)[C@H](C)NC(=O)[C@H](CC(C)C)N(C)C(=O)[C@H](C(C)C)NC(=O)[C@H](CC(C)C)N(C)C(=O)CN(C)C1=O [Compound 25],IC50,"NFAT; HEK293, 16 h",10 µM
